Experimental data taken from patent publication US20240217978A1 (CHONG KUN DANG PHARMACEUTICAL CORP., priority 2021, published 2024).
Values belong to the molecule of their own block, whether it stands above or below them.

Target: human adenosine A2a receptor (Homo sapiens (Human), UniProt P29274)
Assay: A2a receptor binding affinity, [3H]-NECA radioligand binding test
Details: [3H]-NECA 37 nM; membrane from HEK-293 cells transfected with human adenosine A2a receptor
Experimental: The binding affinity of the compounds according to Examples of the present invention to the human adenosine A2a receptor was evaluated by entrusting SB drug discovery in the UK.
A radioligand binding test was conducted by using [3H]-NECA (5′-N-[adenine-2,8-3H]-ethylcarboxamidoadenosine) and an adenosine A2a membrane. As the adenosine A2a membrane, a cell membrane prepared from HEK-293 cells transfected with human adenosine A2a receptor was used. The membrane used for the test was prepared by incubating with a radioligand until equilibrium was reached. In order to separate the radioligand-bound membrane, the unbound radioligand was separated by using Packard filtermate Harverster and glass filter plates.
10 μL of test compound dissolved in binding buffer (50 mM Tris, 10 mM MgCl2, 1 mM EDTA pH 7.4) and 20 μL of [3H]-NECA (final concentration of 37 nM) or reference inhibitor was mixed with 20 μL of A2a membrane in an unbound 96-well plate and incubated at room temperature for one hour. Prior to filtration, a 96-well harvest filter plate was coated with 0.33% polyethylenimine for 30 minutes and then washed with assay buffer. The binding reaction was transferred to the filter plate and washed three times with wash buffer. The dish was then dried, scintillant was added, and radioactivity was counted in a scintillation counter (Topcount NXT, Packard).
The binding affinity IC50 (μM) for the human adenosine A2a receptor obtained according to the above experimental method is shown in the table below.

Sequence of human adenosine A2a receptor (P29274 whole entry): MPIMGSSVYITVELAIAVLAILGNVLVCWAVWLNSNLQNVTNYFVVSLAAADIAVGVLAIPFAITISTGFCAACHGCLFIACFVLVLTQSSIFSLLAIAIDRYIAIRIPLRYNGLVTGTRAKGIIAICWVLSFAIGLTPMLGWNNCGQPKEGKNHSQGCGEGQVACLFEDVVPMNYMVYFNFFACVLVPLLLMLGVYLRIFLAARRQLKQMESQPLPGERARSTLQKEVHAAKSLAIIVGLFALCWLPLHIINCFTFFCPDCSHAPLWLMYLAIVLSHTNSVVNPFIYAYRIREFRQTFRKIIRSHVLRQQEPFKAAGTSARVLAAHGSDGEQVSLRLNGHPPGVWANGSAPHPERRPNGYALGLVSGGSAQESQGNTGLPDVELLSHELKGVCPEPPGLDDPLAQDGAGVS

Compound: Nc1nc(N[C@@H](Cc2ccccc2)C(=O)N2CCC(N3CCOCC3)CC2)nc2nc(-c3ccco3)nn12 [Example 19, (S)-2-((7-amino-2-(furan-2-yl)-[1,2,4]triazolo[1,5-a][1,3,5]triazin-5-yl)amino)-1-(4-morpholinopiperidin-1-yl)-3-phenylpropan-1-one]
IC50: 15 nM

Compound: Nc1nc(N[C@H](C(=O)N2CCN(c3ccc(F)cc3F)CC2)c2ccccc2)nc2nc(-c3ccco3)nn12 [Example 7, (S)-2-((7-amino-2-(furan-2-yl)-[1,2,4]triazolo[1,5-a][1,3,5]triazin-5-yl)amino)-1-(4-(2,4-difluorophenyl)piperazin-1-yl)-2-phenylethan-1-one]
IC50: 6.72 nM

Compound: Nc1nc(N[C@H](C(=O)N2CCN(c3ccc(F)cc3F)CC2)C2CC2)nc2nc(-c3ccco3)nn12 [Example 168, (S)-2-((7-amino-2-(furan-2-yl)-[1,2,4]triazolo[1,5-a][1,3,5]triazin-5-yl)amino)-2-cyclopropyl-1-(4-(2,4-difluorophenyl)piperazin-1-yl)ethan-1-one]
IC50: 4 nM

Compound: CC(C)(F)CN1CCN(C(=O)[C@H](CO)Nc2nc(N)n3nc(-c4ccco4)nc3n2)CC1 [Example 232, (S)-2-((7-amino-2-(furan-2-yl)-[1,2,4]triazolo[1,5-a][1,3,5]triazin-5-yl)amino)-1-(4-(2-fluoro-2-methylpropyl)piperazin-1-yl)-3-hydroxypropan-1-one]
IC50: 40 nM

Compound: CC(C)N1CCN(C(=O)[C@@H]2CCCN2c2nc(N)n3nc(-c4ccco4)nc3n2)CC1 [Example 136, (S)-(1-(7-amino-2-(furan-2-yl)-[1,2,4]triazolo[1,5-a][1,3,5]triazin-5-yl)pyrrolidin-2-yl)(4-isopropylpiperazin-1-yl)methanone]
IC50: 4 nM

Compound: Nc1nc(N2CC[C@H]2C(=O)N2CCC(CN3CCC(C(F)(F)F)CC3)CC2)nc2nc(-c3ccco3)nn12 [Example 402, (S)-(1-(7-amino-2-(furan-2-yl)-[1,2,4]triazolo[1,5-a][1,3,5]triazin-5-yl)azetidin-2-yl)(4-((4-(trifluoromethyl)piperidin-1-yl)methyl)piperidin-1-yl)methanone]
IC50: 10 nM

Compound: CC(C)(O)CC(=O)N1CCN(C(=O)[C@@H]2CCCN2c2nc(N)n3nc(-c4ccco4)nc3n2)CC1 [Example 229, 1-(4-((7-amino-2-(furan-2-yl)-[1,2,4]triazolo[1,5-a][1,3,5]triazin-5-yl)-L-prolyl)piperazin-1-yl)-3-hydroxy-3-methylbutan-1-one]
IC50: 12 nM

Compound: CCCC[C@H](Nc1nc(N)n2nc(-c3ccco3)nc2n1)C(=O)N1CCN(CC(F)(F)F)CC1 [Example 213, (S)-2-((7-amino-2-(furan-2-yl)-[1,2,4]triazolo[1,5-a][1,3,5]triazin-5-yl)amino)-1-(4-(2,2,2-trifluoroethyl)piperazin-1-yl)hexan-1-one]
IC50: 7 nM

Compound: C[C@H](Nc1nc(N)n2nc(-c3ccco3)nc2n1)C(=O)N1CCN(CC(F)(F)C(F)F)CC1 [Example 318, (S)-2-((7-amino-2-(furan-2-yl)-[1,2,4]triazolo[1,5-a][1,3,5]triazin-5-yl)amino)-1-(4-(2,2,3,3-tetrafluoropropyl)piperazin-1-yl)propan-1-one]
IC50: 19 nM

Compound: CC(C)(O)CN1CCC(C2CCN(C(=O)[C@@H]3CCCN3c3nc(N)n4nc(-c5ccco5)nc4n3)CC2)CC1 [Example 244, (S)-(1-(7-amino-2-(furan-2-yl)-[1,2,4]triazolo[1,5-a][1,3,5]triazin-5-yl)pyrrolidin-2-yl)(1′-(2-hydroxy-2-methylpropyl)-[4,4′-bipiperidin]-1-yl)methanone]
IC50: 4 nM

The remaining molecules from weak to strong by IC50, led by results:

IC50: 15 nM
Compound: CC[C@H](Nc1nc(N)n2nc(-c3ccco3)nc2n1)C(=O)N1CCN(CC(F)(F)F)CC1 [Example 211, (S)-2-((7-amino-2-(furan-2-yl)-[1,2,4]triazolo[1,5-a][1,3,5]triazin-5-yl)amino)-1-(4-(2,2,2-trifluoroethyl)piperazin-1-yl)butan-1-one]

IC50: 14 nM
Compound: Nc1nc(N2CCCC[C@H]2C(=O)N2CCN(CC(F)(F)C(F)F)CC2)nc2nc(-c3ccco3)nn12 [Example 279, (S)-(1-(7-amino-2-(furan-2-yl)-[1,2,4]triazolo[1,5-a][1,3,5]triazin-5-yl)piperidin-2-y1)(4-(2,2,3,3-tetrafluoropropyl)piperazin-1-yl)methanone]

IC50: 12 nM
Compound: COC[C@H](Nc1nc(N)n2nc(-c3ccco3)nc2n1)C(=O)N1CCN(CC(C)(F)F)CC1 [Example 397, (S)-2-((7-amino-2-(furan-2-yl)-[1,2,4]triazolo[1,5-a][1,3,5]triazin-5-yl)amino)-1-(4-(2,2-difluoropropyl)piperazin-1-yl)-3-methoxypropan-1-one]

IC50: 11 nM
Compound: CCC(O)(CC)CN1CCN(C(=O)[C@@H]2CCCN2c2nc(N)n3nc(-c4ccco4)nc3n2)CC1 [Example 42, (S)-(1-(7-amino-2-(furan-2-yl)-[1,2,4]triazolo[1,5-a][1,3,5]triazin-5-yl)pyrrolidin-2-yl)(4-(2-ethyl-2-hydroxybutyl)piperazin-1-yl)methanone]

IC50: 8 nM
Compound: Nc1nc(N2CC[C@H]2C(=O)N2CCC(C3CCN(CC(F)(F)C(F)F)CC3)CC2)nc2nc(-c3ccco3)nn12 [Example 325, (S)-(1-(7-amino-2-(furan-2-yl)-[1,2,4]triazolo[1,5-a][1,3,5]triazin-5-yl)azetidin-2-yl)(1′-(2,2,3,3-tetrafluoropropyl)-[4,4′-bipiperidin]-1-yl)methanone]

IC50: 4 nM
Compound: Nc1nc(N2CCC[C@H]2C(=O)N2CC3(CCN(C(=O)c4ccccc4)CC3)C2)nc2nc(-c3ccco3)nn12 [Example 160, (2-((7-amino-2-(furan-2-yl)-[1,2,4]triazolo[1,5-a][1,3,5]triazin-5-yl)-L-prolyl)-2,7-diazaspiro[3.5]nonan-7-yl)(phenyl)methanone]

IC50: 3 nM
Compound: CC(F)(F)CN1CCC(C2CCN(C(=O)[C@@H]3CCCN3c3nc(N)n4nc(-c5ccco5)nc4n3)CC2)CC1 [Example 288, (S)-(1-(7-amino-2-(furan-2-yl)-[1,2,4]triazolo[1,5-a][1,3,5]triazin-5-yl)pyrrolidin-2-yl)(1′-(2,2-difluoropropyl)-[4,4′-bipiperidin]-1-yl)methanone]

IC50: 2 nM
Compound: Cc1ccc(-c2nc3nc(N4CC[C@H]4C(=O)N4CCN(CC(F)(F)C(F)F)CC4)nc(N)n3n2)o1 [Example 312, (S)-(1-(7-amino-2-(5-methylfuran-2-yl)-[1,2,4]triazolo[1,5-a][1,3,5]triazin-5-yl)azetidin-2-y1)(4-(2,2,3,3-tetrafluoropropyl)piperazin-1-yl)methanone]

IC50: 1 nM
Compound: CC1(C)C[C@@H](C(=O)N2CCN(CC(F)(F)F)CC2)N(c2nc(N)n3nc(-c4ccco4)nc3n2)C1 [Example 387, (S)-(1-(7-amino-2-(furan-2-yl)-[1,2,4]triazolo[1,5-a][1,3,5]triazin-5-yl)-4,4-dimethylpyrrolidin-2-yl)(4-(2,2,2-trifluoroethyl)piperazin-1-yl)methanone]

IC50: 0.125 nM
Compound: Nc1nc(N[C@@H](Cc2ccccc2)C(=O)N2CCN(Cc3ccc(F)cc3)CC2)nc2nc(-c3ccco3)nn12 [Example 18, (S)-2-((7-amino-2-(furan-2-yl)-[1,2,4]triazolo[1,5-a][1,3,5]triazin-5-yl)amino)-1-(4-(4-fluorobenzyl)piperazin-1-yl)-3-phenylpropan-1-one]
